The values that follow come from PMC5684143, “New melanocortin-like peptide of E. coli can suppress inflammation via the mammalian melanocortin-1 receptor (MC1R): possible endocrine-like function for microbes of the gut” (NPJ Biofilms and Microbiomes, 2017).

The subject of one assay is Balb/C mice. Put plainly: Lethal LPS endotoxin sepsis in mice, survival. The class given is in vivo. Particulars: two experiments pooled; peptide i.p. twice daily for 3 days; saline 0 of 19; alpha-MSH 5 of 20, MECO-1 15 of 30. The source says: Kaplan–Meier analysis was used to determine statistical significance of the differences in survival of mice. p ≦ 0.05 was considered significant. Values in the figures were expressed as mean(±)S.E.M. of two or three independent experiments, where each experimental point was derived from duplicates or triplicates. Student’s two-tailed t-test was used to compare the means between groups. p-value of 0.05 or less was considered statistically significant. The design (including sample size) of experiments in Figs. 2–7, and Table 1 followed closely the design of previous experiments by us and others. The results of prior experiments in our laboratory (both in vitro experiments and animal experiments) were used to decide sample size for each of the experiments shown.[37]–[41]
Fig. 6 MECO-1 rescues mice from lethal sepsis. a Endotoxin. Balb/C mice (males) were injected once intraperitoneally with LPS at a dose estimated to be an LD75. Immediately thereafter, the first doses of MECO-1 at 0.5 mg/kg (low dose), MECO-1 at 5 mg/kg (high dose), alpha-MSH at 5 mg/kg (high dose) or saline alone were administered intraperitoneally. Peptide or saline were given twice daily for 3 days for a total of six doses. Ten mice were in each group. Survival was monitored daily for 2 weeks. […] Animals were monitored for survival for 14 days. […]

Assay [1] deals with human peripheral blood mononuclear cells (PBMC). Put plainly: HMGB1-induced TNF release by human PBMC-derived macrophages. Type of assay: cell-based. As to conditions: differentiated human macrophages; HMGB1 6 hours; ELISA; three independent experiments in duplicate. On the procedure: Human PBMC were isolated by density gradient through Ficoll-Paque^TM PLUS centrifugation (Amersham Pharmacia Biotech), and suspended in RPMI 1640 containing 10% (vol/vol) heat-inactivated human serum (BioWhittaker Inc.), penicillin 100 U/ml, and streptomycin 100 μg/ml, and incubated at 37 °C in a humidified incubator with 5% CO2 atmosphere overnight. Non-adherent cells were discarded. Adherent monocytes were washed twice with PBS and were then suspended in 12-well and 24-well tissue culture plates and incubated in the same medium but now enriched with 2.5 ng/ml macrophage colony-stimulating factor for 5–7 days.[33] […]
(§1) Concentrations of TNF and IL-6 were each determined using a commercially available enzyme-linked immunosorbent assay (ELISA) kit (R&D System Inc.) as previously described.[34] The levels of TNF or IL-6 were calculated with reference to standard curves.
Human peripheral blood mononuclear cells (PBMC) were isolated by density gradient centrifugation through Ficoll-PaqueTM PLUS, and cultured for 5-7 days in medium containing macrophage colony-stimulating factor (2.5 ng/ml). […] The content of TNF in the cell-free medium was determined by ELISA and expressed as mean ± SEM of three independent experiments performed in duplicate. *p< 0.05, **p< 0.01 vs. control (=HMGB1 alone without added melanocortin peptide).
On the technique in general: ELISA stands for enzyme-linked immunosorbent assay.

The test system of the next assay is RAW 264.7 cells. The assay is described as follows: Peptidoglycan (PGN)-induced TNF release by RAW 264.7 cells. Type of assay: cell-based, murine. Particulars: picomolar range of peptide; waning inhibition at nanomolar concentrations. On the procedure:
Murine macrophage-like RAW 264.7 cells were obtained from American Type Culture Collection, and were grown in Dulbecco’s Modified Eagle’s Medium (DMEM, Life Technologies) containing 10% (vol/vol) heat-inactivated fetal bovine serum (FBS, Hyclone Lab. Inc.), penicillin 100 U/ml, and streptomycin 100 μg/ml (BioWhittaker Inc.). Cells were suspended in medium and incubated in 24-well or 48-well tissue-culture plates overnight in a humidified incubator (37 °C, 5% CO2). Growth medium was removed and replaced by Opti-MEM I serum-free medium (Life Technologies) overnight. In the experiments, cell monolayers were stimulated with HMGB1 or LPS, in the absence or presence of MECO-1 or alpha-MSH; cell-free supernatants were assayed for TNF by ELISA or HMGB1 by western blotting.
as §1
Fig. 2 Cytokine-induced TNF release inhibited by MECO-1. a Lipopolysaccharide (LPS), derived from the cell wall of Gram-negative bacteria, is a TLR4 and TLR2 agonist. RAW 264.7 cells were treated with MECO-1 and LPS simultaneously and incubated overnight. Supernatants were tested for TNF with ELISA. b Poly I:C, synthetic double stranded RNA, is recognized by TLR3. […]

Take “alpha-melanocyte-stimulating hormone [alpha-MSH]”: the “mice rescued from lethal dose of LPS endotoxin” value in the assay on Balb/C mice turned out to be 25%. Also, the “attenuation of HMGB-1-induced TNF release” value in assay [1] is “significant effects in the picomolar range”. In addition, the “inhibition of PGN-induced TNF release” value with RAW 264.7 cells is reported as “Up to 75%”.
